Measurements: PubChem BioAssay AID1918996 (Molecular Pharmacology Branch, DTP, NCI, 2023)
Several values for one entry are separate records, joined by “and”; a condition that tells them apart may be missing. Equal entries are not always repeated.

Test system: 349418-098-R-PDC complex spheroid growth
Assay: Anticancer human tumor 349418-098-R-PDC patient-derived lung adenocarcinoma cell line growth inhibition [AhR]
Details: for viability, T/C: stronger effect = lower value; active = viability on the fitted dose curve at most 10% of control; inactive = the rest
From the text: Multicellular complex tumor spheroid response to aryl hydrocarbon receptor antagonists in combination with a variety of drugs and investigational agents in selected tumor cell lines
The current study was undertaken to assess response to aryl hydrocarbon receptor antagonists in combination with standard-of-care drugs and investigational agents in solid tumor complex spheroid models. Complex spheroids include a stromal component modeled by human endothelial cells (HUVEC) and fibroblasts modeled by human mesenchymal stem cells (MSCs). The concentration ranges selected for each drug and investigational agent were based upon clinically achievable concentrations if the clinical Cmax of the agent was known.
Compounds. The drugs and investigational agents: BAY 2416964 (NSC825713), GNF351 (NSC835774), CH-223191 (NSC835775), CPI-455 (NSC825282), aza-TdCyd (NSC777586), decitabine (NSC127716), belinostat (NSC758774), entinostat (NSC756642), pevonedistat (NSC761192), tazemetostat (NSC777109), talazoparib (NSC765396), olaparib (NSC753686), selinexor (NSC780203), nedisertib (M3814, NSC802822), bortezomib (NSC756655), venetoclax (NSC766270), doxorubicin (NSC123127), elimusertib (BAY189344, NSC800525), ceralasertib (AZD6738, NSC777638), TAK-243 (NSC785004), alisertib (NSC759677), etoposide (NSC141540), topotecan (NSC609699), eribulin (NSC707389), gemcitabine (NSC613327), carboplatin (NSC241240), cisplatin (NSC119875), and SN-38 (NSC673596) were obtained from the National Cancer Institute (NCI) Developmental Therapeutics Program Chemical Repository (32). The FDA-approved anticancer drug set is available from the Developmental Therapeutics Program at https://dtp.cancer.gov/organization/dscb/obtaining/available plates.htm. […] The stock solutions were prepared in dimethyl sulfoxide (DMSO, Sigma-Aldrich, St. Louis, MO, cat. D2650), except for the platinum compounds which were prepared in saline (Quality Biological, Gaithersburg, MD, cat. 114-055-101), at 800-fold the tested concentration and stored at -70 degrees C prior to their use. All drugs and investigational agents were tested over a range starting from a high concentration at or near the clinical Cmax and decreasing in half-log increments. If the clinical Cmax for an agent had not been determined, the highest concentration tested was 10 microM (Table 1).
Cell Culture. All cells were maintained in an incubator at 37 degrees C and 5% CO2 with 95% humidity. The PDC lines were cultured according to standard operating procedures established by the NCI PDMR (https://pdmr.cancer.gov). Briefly, all PDCs were thawed and cultured in Matrigel-coated flasks prepared with a working solution of 1X Ham's F-12 nutrient mix, without supplementation (Invitrogen, Waltham, MA, cat. 11765054), 100 U/mL penicillin-streptomycin (Invitrogen, cat. 15140122), and 2.5% Matrigel (Corning Inc., Corning, NY, cat. 354248) for the first three passages. All PDCs were cultured in complete DMEM/F-12 media containing advanced DMEM/F-12 (Invitrogen, cat. 12634028), 4.9% defined fetal bovine serum, heat inactivated (HyClone Laboratories Inc., Logan, UT, cat. SH30070.03HI), 389 ng/mL hydrocortisone (Sigma-Aldrich, cat. H4001), 9.7 ng/mL human EGF recombinant protein (Invitrogen, cat. PHG0313), 23.4 microg/mL adenine (Sigma-Aldrich, cat. A2786), 97.3 U/mL penicillin-streptomycin (Invitrogen, cat. 15140122), 1.9 mM L-glutamine (Invitrogen, cat. 25030081), and 9.7 microM Y-27632 dihydrochloride (Tocris Bioscience, Bristol, United Kingdom, cat. 1254). The PDCs were cultured in complete DMEM/F12 media without 10 microM Y-27632 dihydrochloride for at least two passages prior to the screen. The established cell lines NCI-H1341 and […] were cultured in DMEM/F-12, HEPES (Invitrogen, cat. 11330032), 5% defined fetal bovine serum (HyClone Laboratories Inc., cat. SH30070.03), ITS premix universal culture supplement [insulin (5 microg/mL), transferrin (5 microg/mL), and selenious acid (5 ng/mL)] […]

[1] = curve of first compound, second compound 0.1 µM
[2] = curve of first compound, second compound 0.316 µM
[3] = curve of first compound, second compound 1 µM
[4] = curve of first compound, second compound 3.16 µM
[5] = curve of first compound, second compound 10 µM
[6] = second compound 0.1 µM, first compound 0.0316 µM
[7] = second compound 0.1 µM, first compound 0.1 µM
[8] = second compound 0.1 µM, first compound 0.316 µM
[9] = second compound 0.1 µM, first compound 1 µM
[10] = second compound 0.1 µM, first compound 3.16 µM
[11] = second compound 0.1 µM, first compound 10 µM
[12] = second compound 0.316 µM, first compound 0.0316 µM
[13] = second compound 0.316 µM, first compound 0.1 µM
[14] = second compound 0.316 µM, first compound 0.316 µM
[15] = second compound 0.316 µM, first compound 1 µM
[16] = second compound 0.316 µM, first compound 3.16 µM
[17] = second compound 0.316 µM, first compound 10 µM
[18] = second compound 1 µM, first compound 0.0316 µM
[19] = second compound 1 µM, first compound 0.1 µM
[20] = second compound 1 µM, first compound 0.316 µM
[21] = second compound 1 µM, first compound 1 µM
[22] = second compound 1 µM, first compound 3.16 µM
[23] = second compound 1 µM, first compound 10 µM
[24] = second compound 3.16 µM, first compound 0.0316 µM
[25] = second compound 3.16 µM, first compound 0.1 µM
[26] = second compound 3.16 µM, first compound 0.316 µM
[27] = second compound 3.16 µM, first compound 1 µM
[28] = second compound 3.16 µM, first compound 3.16 µM
[29] = second compound 3.16 µM, first compound 10 µM
[30] = second compound 10 µM, first compound 0.0316 µM
[31] = second compound 10 µM, first compound 0.1 µM
[32] = second compound 10 µM, first compound 0.316 µM
[33] = second compound 10 µM, first compound 1 µM
[34] = second compound 10 µM, first compound 3.16 µM
[35] = second compound 10 µM, first compound 10 µM
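Also: spheroids exposed to agents for seven days before luminescence viability read.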
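For viability, T/C in this document: spheroids also contain HUVEC endothelial cells and human MSC stroma.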

O=C(C=Cc1cccc(S(=O)(=O)Nc2ccccc2)c1)NO + CC(CO)NC(=O)c1cc(-c2ccc(Cl)cc2)nn(-c2cnn(C)c2)c1=O
572 nM: IC50 [1]
638 nM: IC50 [3]
active: viability, T/C [10] 8.25% | viability, T/C [11] 1.75% | viability, T/C [16] 7.87% | viability, T/C [17] 1.86% | viability, T/C [22] 8.85% | viability, T/C [23] 1.91% | viability, T/C [28] 7.44% | viability, T/C [29] 1.82% | viability, T/C [34] 7.16% | viability, T/C [35] 1.98%
inactive: viability, T/C [6] 85.8% | viability, T/C [7] 94% | viability, T/C [8] 69.8% | viability, T/C [9] 30% | viability, T/C [12] 110% | viability, T/C [13] 101% | viability, T/C [14] 75.5% | viability, T/C [15] 31.5% | viability, T/C [18] 99.8% | viability, T/C [19] 109% | viability, T/C [20] 77% | viability, T/C [21] 31.8% | viability, T/C [24] 90.7% | viability, T/C [25] 102% | viability, T/C [26] 68.4% | viability, T/C [27] 30.1% | viability, T/C [30] 72.7% | viability, T/C [31] 82.5% | viability, T/C [32] 53.6% | viability, T/C [33] 32.1%
567 nM: IC50 [4]
615 nM: IC50 [2]
445 nM: IC50 [5]

Nc1ccccc1NC(=O)c1ccc(CNC(=O)OCc2cccnc2)cc1 + CC(CO)NC(=O)c1cc(-c2ccc(Cl)cc2)nn(-c2cnn(C)c2)c1=O
inactive: viability, T/C [6] 82.8% | viability, T/C [7] 110% | viability, T/C [8] 73.4% | viability, T/C [9] 45.7% | viability, T/C [10] 23.3% | viability, T/C [11] 7.92% | viability, T/C [12] 114% | viability, T/C [13] 98.5% | viability, T/C [14] 81.7% | viability, T/C [15] 51.4% | viability, T/C [16] 22.7% | viability, T/C [18] 104% | viability, T/C [19] 104% | viability, T/C [20] 80.9% | viability, T/C [21] 50.8% | viability, T/C [22] 23.9% | viability, T/C [24] 79.5% | viability, T/C [25] 104% | viability, T/C [26] 65.4% | viability, T/C [27] 52.9% | viability, T/C [28] 22.1% | viability, T/C [30] 54.1% | viability, T/C [31] 68.4% | viability, T/C [32] 50.7% | viability, T/C [33] 39.8% | viability, T/C [34] 18.8%
1060 nM: IC50 [3]
active: viability, T/C [17] 6.83% | viability, T/C [23] 7.01% | viability, T/C [29] 7.39% | viability, T/C [35] 5.36%
1000 nM: IC50 [4]
1050 nM: IC50 [2]
873 nM: IC50 [1]
438 nM: IC50 [5]

Nc1ncn(C2CC(O)C(CO)S2)c(=O)n1 (configuration not stated) + Cc1cncc(-c2nc(NCCc3c[nH]c4ccccc34)c3ncn(C(C)C)c3n2)c1
76.2 nM: IC50 [4]
< 0.949 nM: IC50 [3] | IC50 [5]
active: viability, T/C (second compound 10 µM, first compound 0.000949 µM) 2.25% | viability, T/C (second compound 10 µM, first compound 0.003 µM) 2.66% | viability, T/C (second compound 10 µM, first compound 0.00949 µM) 2.49% | viability, T/C (second compound 10 µM, first compound 0.03 µM) 2.15% | viability, T/C (second compound 10 µM, first compound 0.0949 µM) 2.02% | viability, T/C (second compound 10 µM, first compound 0.3 µM) 2.32%
133 nM: IC50 [1] | IC50 [2]
inactive: viability, T/C (second compound 0.1 µM, first compound 0.000949 µM) 102% | viability, T/C (second compound 0.1 µM, first compound 0.003 µM) 96.7% | viability, T/C (second compound 0.1 µM, first compound 0.00949 µM) 90.8% | viability, T/C (second compound 0.1 µM, first compound 0.03 µM) 74.5% | viability, T/C (second compound 0.1 µM, first compound 0.0949 µM) 59.3% | viability, T/C (second compound 0.1 µM, first compound 0.3 µM) 30.7% | viability, T/C (second compound 0.316 µM, first compound 0.000949 µM) 88.6% | viability, T/C (second compound 0.316 µM, first compound 0.003 µM) 93.7% | viability, T/C (second compound 0.316 µM, first compound 0.00949 µM) 83% | viability, T/C (second compound 0.316 µM, first compound 0.03 µM) 71.4% | viability, T/C (second compound 0.316 µM, first compound 0.0949 µM) 59.1% | viability, T/C (second compound 0.316 µM, first compound 0.3 µM) 31.8% | viability, T/C (second compound 1 µM, first compound 0.000949 µM) 47.5% | viability, T/C (second compound 1 µM, first compound 0.003 µM) 42.5% | viability, T/C (second compound 1 µM, first compound 0.00949 µM) 38.9% | viability, T/C (second compound 1 µM, first compound 0.03 µM) 37.6% | viability, T/C (second compound 1 µM, first compound 0.0949 µM) 30.4% | viability, T/C (second compound 1 µM, first compound 0.3 µM) 24% | viability, T/C (second compound 3.16 µM, first compound 0.000949 µM) 70% | viability, T/C (second compound 3.16 µM, first compound 0.003 µM) 86.3% | viability, T/C (second compound 3.16 µM, first compound 0.00949 µM) 94.6% | viability, T/C (second compound 3.16 µM, first compound 0.03 µM) 73.6% | viability, T/C (second compound 3.16 µM, first compound 0.0949 µM) 44.7% | viability, T/C (second compound 3.16 µM, first compound 0.3 µM) 30.6%

COc1cc(Nc2ncc3c(n2)-c2ccc(Cl)cc2C(c2c(F)cccc2OC)=NC3)ccc1C(=O)O
184 nM and 52.6 nM and < 31.6 nM: IC50 (curve of compound)
inactive: viability, T/C (compound 0.0316 µM) 71.2% and 55.7% and 53.1% | viability, T/C (compound 0.1 µM) 60.4% and 48.7% and 48.4% | viability, T/C (compound 0.316 µM) 35.9% and 24.7% and 26.5% | viability, T/C (compound 1 µM) 47% and 31.1% and 35.9% | viability, T/C (compound 3.16 µM) 43% and 33.3% and 42.7% | viability, T/C (compound 10 µM) 37.2% and 35.5% and 37.6%
